Data published in US9409905B2, “Antibacterial compounds and methods for use” (PTC THERAPEUTICS, INC., priority 2011, dated 2016).

What was measured:
[1] = tested on: Escherichia coli (E. coli) BAS849; assay: Antibacterial activity, microbroth dilution MIC (Table 1); format: cell-based; details: microbroth dilution, super sensitive Gram-negative E. coli BAS849, read-out: MIC, BAS849
In short: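 Values are MICs (μg/mL): the smallest drug amount at which macroscopically visible bacterial growth is absent under assay conditions, from a microdilution method in broth.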

[2] = tested on: Staphylococcus aureus (S. aureus) 29213; assay: as above; format: cell-based; details: microbroth dilution, Gram-positive S. aureus 29213, read-out: MIC, 29213
In short: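 In a microbroth dilution test, the minimum inhibitory concentration was defined as the lowest compound level preventing growth seen by eye, and was given in μg/mL.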

[3] = tested on: E. coli 25922; assay: as above; format: cell-based, Escherichia coli; details: Escherichia coli; microbroth dilution; control Gram-negative E. coli 25922 strain; read-out: MIC, 25922
In short: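 Microbroth dilution was used. MIC, in μg/mL, is the lowest drug concentration preventing macroscopically visible growth under the test conditions.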

[4] = tested on: E. coli LZ3111; assay: Antibacterial activity, MIC, quinolone resistant strain (Table 2); format: cell-based; details: Escherichia coli, LZ3111, read-out: MIC LZ3111
In short: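 Growth inhibition assessed by serial drug dilution in broth; endpoint was absence of macroscopically visible growth, reported as MIC, μg/mL.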

[5] = tested on: E. coli ELZ4000; assay: Antibacterial activity, MIC, multi-drug resistant clinical isolate (Table 3); format: cell-based; details: Escherichia coli, ELZ4000, read-out: MIC ELZ4000
In short: (§1)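 Values derive from a microbroth dilution method, taking as MIC (μg/mL) the lowest tested concentration without macroscopically visible growth.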

[6] = tested on: E. coli ELZ4251; assay: as above; format: cell-based; details: Escherichia coli
In short: as §1

[7] = tested on: Acinetobacter baumannii (A. baumannii) BAA747; assay: Antibacterial activity, MIC (Table 4); format: cell-based; details: A. baumannii BAA747, read-out: MIC, BAA747
In short: (§2)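 Compounds are serially diluted in microbroth, bacteria are grown under the test conditions, and growth is then inspected macroscopically. The lowest concentration without visible growth is reported as the MIC (μg/mL).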

[8] = tested on: Klebsiella pneumoniae (K. pneumoniae) 35657; assay: Antibacterial activity, MIC (Table 4); format: cell-based; details: K. pneumoniae 35657, read-out: MIC, 35657
In short: as §2

[9] = tested on: A. baumannii MXX2240; assay: Antibacterial activity, MIC, resistant strain (Table 4); format: cell-based; details: Acinetobacter baumannii, MXX2240; resistant A. baumannii MMX2240, multi-drug resistant clinical isolate; read-out: MIC, MMX2240
In short: as §2

[10] = tested on: K. pneumoniae MXX1232; assay: as above; format: cell-based; details: Klebsiella pneumoniae, MXX1232; resistant K. pneumoniae MMX1232, multi-drug resistant clinical isolate; read-out: MIC, MMX1232
In short: as §2

[11] = tested on: Pseudomonas aeruginosa (P. aeruginosa) 27853; assay: Antibacterial activity, MIC (Table 5); format: cell-based; details: P. aeruginosa 27853, read-out: MIC, 27853
In short: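 Using a microbroth dilution format, the minimum inhibitory concentration was recorded as the lowest tested concentration that stopped visible bacterial growth, expressed in μg/mL.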

[12] = tested on: Haemophilus influenzae (H. influenzae) 49247; assay: Antibacterial activity, MIC (Table 6); format: cell-based
In short: (§3)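 Values are minimum inhibitory concentrations in μg/mL, read as the lowest compound concentration at which no growth is visible to the eye. Testing used a microbroth dilution format.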

[13] = tested on: Moraxella catarrhalis (M. catarrhalis) 25238; assay: Antibacterial activity, MIC (Table 7); format: cell-based
In short: as §3

[14] = tested on: Neisseria meningitidis (N. meningitidis) 13090; assay: Antibacterial activity, MIC (Table 8); format: cell-based
In short: as §3

Measured: MIC

CCc1c(-c2ccc3c(c2)cc2n3CCNC2)[nH]c(=O)c(C(=O)O)c1O [Cpd 305, 5-ethyl-4-hydroxy-2-oxo-6-(1,2,3,4-tetrahydropyrazino[1,2-a]indol-8-yl)-1,2-dihydropyridine-3-carboxylic acid]
1 to 3.5 µg/mL: [7]
3.5 to 12.5 µg/mL: [2] | [4] | [6] | [11]
12.5 to 150 µg/mL: [5] | [9] | [10]
< 1 µg/mL: all other assays above

Cc1c(-c2ccc3c(c2)cc(CN(C)C)n3C)[nH]c(=O)c(C(=O)O)c1O [Cpd 314, 6-(2-((dimethylamino)methyl)-1-methyl-1H-indol-5-yl)-4-hydroxy-5-methyl-2-oxo-1,2-dihydropyridine-3-carboxylic acid]
1 to 3.5 µg/mL: [4] | [6] | [9] | [12]
12.5 to 150 µg/mL: [2] | [10] | [11]
< 1 µg/mL: [1] | [14]
3.5 to 12.5 µg/mL: all other assays above

Cc1c(-c2ccc3c(c2)cc(CNCC2CC2)n3C)[nH]c(=O)c(C(=O)O)c1O [Cpd 315, 6-(2-((cyclopropylmethylamino)methyl)-1-methyl-1H-indol-5-yl)-4-hydroxy-5-methyl-2-oxo-1,2-dihydropyridine-3-carboxylic acid]
3.5 to 12.5 µg/mL: [13]
< 1 µg/mL: [1] | [4] | [6] | [14]
12.5 to 150 µg/mL: [2] | [10] | [11]
1 to 3.5 µg/mL: all other assays above

Cc1c(-c2ccc3c(c2)cc(CN2CCC2)n3C)[nH]c(=O)c(C(=O)O)c1O [Cpd 316, 6-(2-(azetidin-1-ylmethyl)-1-methyl-1H-indol-5-yl)-4-hydroxy-5-methyl-2-oxo-1,2-dihydropyridine-3-carboxylic acid]
1 to 3.5 µg/mL: [3] | [9] | [12]
12.5 to 150 µg/mL: [2] | [10] | [11] | [14]
< 1 µg/mL: [1] | [4]
3.5 to 12.5 µg/mL: all other assays above

CNCc1cc2cc(-c3[nH]c(=O)c(C(=O)O)c(O)c3C)ccc2n1C [Cpd 317, 4-hydroxy-5-methyl-6-(1-methyl-2-((methylamino)methyl)-1H-indol-5-yl)-2-oxo-1,2-dihydropyridine-3-carboxylic acid]
3.5 to 12.5 µg/mL: [7] | [10] | [13]
12.5 to 150 µg/mL: [2] | [11]
< 1 µg/mL: [1] | [4] | [6] | [14]
1 to 3.5 µg/mL: all other assays above
